The subject of data set [1] is human platelet-rich plasma. The data set can be described thus: In vitro human platelet aggregation inhibition (turbidimetric). The conditions noted are these: ADP inducer. Type of data set: cell-based. As for the experimental part: Biological activity of the claimed compounds is tested by in vitro human platelet aggregation assay. This assay determines the effectiveness of the compounds in inhibiting the platelet aggregation
Immediately thereafter, the platelets start to secrete large quantities of adenosine diphosphate (ADP) which, in turn activates the other platelets that adhere to the original platelets and eventually form the plug which closes the rupture of the vascular wall. In medical parlance the first process is called collagen-induced primary platelet aggregation, the second process is called ADP-mediated secondary platelet aggregation. This situation can be artificially simulated by natural platelet aggregation inducers such as collagen, ADP, or arachidonic acid to the human platelet-rich plasma.
The blood samples used for the assay are collected into sodium citrate anticoagulant of a final concentration of 0.38%. The platelet-rich plasma is collected after centrifugation at 200 rpm at room temperature. To determine whether the platelet-rich plasma needs dilution to obtain optimal optical density, citrated plasma containing […] platelets per milliliter is pipetted into a Spinco transparent plastic centrifuge tube. The tube is inserted into a Unicam SP 400 absorptiometer and the light at the wave-length of 600 mμ is passed through the tube. The dark current is set at infinity and the optical density of distilled water at zero. The plasma is stirred by a magnetic stirrer. If necessary, platelet-rich plasma is diluted with 0.154M sodium chloride to obtain appropriate optical density
Platelet-rich plasma of appropriate optical density is mixed with appropriate concentration of tested compounds to make up 1 ml of mixture of platelet-rich plasma and tested compound. The concentration of each tested compound varied from 1.0×10^-5 moles to 1.0×10^-9 moles. Each concentration is tested individually by number of repetitions varying from 1 to 6. Each sample mixture consisting of platelet-rich plasma and tested compound is incubated for about 3 to 5 minutes under constant stirring at 500 rpm at 30° C. Thereafter, a predetermined optimal concentration of platelet aggregation inducer is added to each sample mixture. Inducers which are used for testing may be chosen from: […]
Adenosine Diphosphate (ADP) is purchased from Sigma Chemical Company. ADP inducer solution of final concentration of 5 μmol is prepared by dissolving 214 mg of ADP in 1 ml of tris buffer (0.01M at pH 9 at 22° C.). […]
A tube with the mixture of platelet-rich plasma, tested compound and ADP inducer (5 μmol/10 μl) is inserted into the absorptiometer and optical density changes are recorded on chart. Aggregation of the platelets is determined from maximal optical density change. Maximal optical density of a mixture of platelet-rich plasma with inducer, but without the tested compounds, is taken as 100% of platelet aggregation. The maximal optical density of the sample mixture of platelet-rich plasma, ADP inducer and appropriate amount of tested compound is compared to the maximal optical density of the sample without tested compound and inhibitory effectiveness of tested compounds is calculated. For each sample the percentage of the platelet aggregation is calculated and if more than one measurement with the same concentration of the tested compounds are done, the final value is expressed as an average of all measurements with ±S.E. The inhibitory concentration is the effective concentration of tested compound which is able to prevent 50% of the platelet aggregation, where, without the tested compound, the platelet aggregation would have been 100%. PGE1 has an IC50 of 2-8×10^-8 M.

Data set [2] can be described thus: Acute toxicity in mice, single intraperitoneal administration. Also on record: species or system Male Sim: (SW)f BR mice. The conditions noted are these: mouse, in vivo, ip. As for the experimental part:
Male Sim: (SW)f BR mice weighing approximately 25 g were randomly assigned to treatment groups of 6 animals, caged together, and were given food and water ad libitum.
The test material was prepared as an aqueous solution or suspension in CMC vehicle (sodium carboxymethyl cellulose, 0.5 g; sodium chloride, 0.9 g; benzyl alcohol, 0.9 ml; Tween 80, 0.4 ml; and water to 100 ml). The test material and the control vehicle were administered once by the indicated route at a dose level of 10 ml per kg body weight.
Following administration of the test material on day 1, animals were observed daily and any deaths were recorded.

In the case of `CCCCCC(O)C#CC1CC2C(=NOCC(=O)O)CC2C1O` (stereo not drawn) [Compound 1, N--[2-endo-hydroxy-3-exo-(3αS--hydroxyoct-1-ynyl)bicyclo[3.2.0]hept-6-ylidene]aminooxyacetic acid], 18.6 nM corresponded to half-maximal inhibition in data set [1] (IC50).

For the compound `CCCCCC(O)C=CC1CC2C(=NOCC(=O)O)CC2C1O` (stereo not drawn) [Compound 2, N--[2-endo-hydroxy-3-exo-(3αS--hydroxyoct-1-trans-enyl)bicyclo[3.2.0]hept-6-ylidene]aminooxyacetic acid], the IC50 (as a rule, the concentration needed to halve the response being measured) in data set [1] (Homo sapiens, Platelet) is 89 nM.

On to `CCCCCC(O)CCC1CC2C(=NOCC(=O)O)CC2C1O` (stereo not drawn) [Compound 3, N--[2-endo-hydroxy-3-exo-(3αβS--hydroxyoct-1-yl)bicyclo[3.2.0]hept-6-ylidene]aminooxyacetic acid], for which the IC50 in data set [1] (Homo sapiens, Platelet) came to 1400 nM.

Take `O=C(O)CON=C1CC2C1CC(C#CC(O)C1CCCC1)C2O` (stereo not drawn) [Compound 4, N--[2-endo-hydroxy-3-exo-(3-hydroxy-3-cyclopentylprop-1-ynyl)bicyclo[3.2.0]hept-6-ylidene]aminooxyacetic acid]: inhibition in data set [1] (Homo sapiens, Platelet) was half-maximal at 12.5 nM (IC50).

For the compound `O=C(O)CON=C1CC2C1CC(/C=C/C(O)C1CCCC1)C2O` (stereo not drawn) [Compound 5], the IC50 in data set [1] is 11.2 nM.

As for `O=C(O)CON=C1CC2C1CC(CCC(O)C1CCCC1)C2O` (stereo not drawn) [Compound 6, N--[2-endo-hydroxy-3-exo-(3-hydroxy-3-cyclopentylprop-1-yl)bicyclo[3.2.0]hept-6-ylidene]aminooxyacetic acid], the midpoint of inhibition in data set [1] (Homo sapiens, Platelet), the IC50, lay at 1000 nM.

`O=C(O)CON=C1CC2C1CC(C#CC(O)C1CCCCC1)C2O` (stereo not drawn) [Compound 7, N--[2-endo-hydroxy-3-exo-(3-hydroxy-3-cyclohexylprop-1-ynyl)bicyclo[3.2.0]hept-6-ylidene]aminooxyacetic acid] had an IC50 in data set [1] (Homo sapiens, Platelet) of 24 nM. Against the preceding compound, the IC50 is about 42-fold lower.

Take `O=C(O)CON=C1CC2C1CC(CCC(O)C1CCCCC1)C2O` (stereo not drawn) [Compound 8, N--[2-endo-hydroxy-3-exo-(3-hydroxy-3-cyclohexylprop-1-yl)bicyclo[3.2.0]hept-6-ylidene]aminooxyacetic acid]: the IC50 in data set [1] (Homo sapiens, Platelet) worked out at 88 nM. This IC50 is about 3.7-fold higher than that of the compound before.

Turning to `CCCCCCCC(O)C#CC1CC2C(=NOCC(=O)O)CC2C1O` (stereo not drawn) [Compound 9, N--[2-endo-hydroxy-3-exo-(3-hydroxydec-1-ynyl)bicyclo[3.2.0]hept-6-ylidene]aminooxyacetic acid], it took 32 nM to reach half-maximal inhibition in data set [1] (Homo sapiens, Platelet) (IC50).

In turn, `CCCCCC(O)C#CC1CC2C(=NOCC(=O)O)CC2C1O` (stereo not drawn) [Compound 11, N--[2-endo-hydroxy-3-exo-(3αβS--hydroxyoct-1-ynyl)bicyclo[3.2.0]hept-6-ylidene]aminooxyacetic acid] came in with an IC50 in data set [1] of 70 nM.

Compound `CCCCCC(O)C#CC1CC2C(=NOCCC(=O)O)CC2C1O` (stereo not drawn) [Compound 12, N--[2-endo-hydroxy-3-exo-(3αS--hydroxyoct-1-ynyl)bicyclo[3.2.0]hept-6-ylidene]-3-aminooxypropionic acid] returned an IC50 in data set [1] of 31 nM.

In data set [1] (Homo sapiens, Platelet), `CCCCCC(O)C=CC1CC2C(=NOCCC(=O)O)CC2C1O` (stereo not drawn) [Compound 13, N--[2-endo-hydroxy-3-exo-(3αS--hydroxyoct-1-trans-enyl)bicyclo[3.2.0]hept-6-ylidene]-3-aminooxypropionic acid] displayed a half-maximal inhibitory concentration (IC50) of 6.9 nM.

In data set [1] (Homo sapiens, Platelet), `CCCCCC(O)CCC1CC2C(=NOCCC(=O)O)CC2C1O` (stereo not drawn) [Compound 14, N--[2-endo-hydroxy-3-exo-(3αβS--hydroxyoct-1-yl)bicyclo[3.2.0]hept-6-ylidene]-3-aminooxypropionic acid] yielded an IC50 of 2200 nM.

Regarding `O=C(O)CCON=C1CC2C1CC(C#CC(O)C1CCCC1)C2O` (stereo not drawn) [Compound 15, N--[2-endo-hydroxy-3-exo-(3-hydroxy-3-cyclopentylprop-1-ynyl)bicyclo[3.2.0]hept-6-ylidene]-3-aminooxypropionic acid], half-maximal inhibition in data set [1] (Homo sapiens, Platelet) (IC50) required 31 nM.

`O=C(O)CCON=C1CC2C1CC(/C=C/C(O)C1CCCC1)C2O` (stereo not drawn) [Compound 16, N--[2-endo-hydroxy-3-exo-(3α-hydroxy-3-cyclopentylprop-1-trans-enyl)bicyclo[3.2.0]hept-6-ylidene]-3-aminooxypropionic acid]: the 50% inhibitory concentration (IC50) in data set [1] stood at 10.5 nM.

For `O=C(O)CCON=C1CC2C1CC(CCC(O)C1CCCC1)C2O` (stereo not drawn) [Compound 17, N--[2-endo-hydroxy-3-exo-(3-hydroxy-3-cyclopentylprop-1-yl)bicyclo[3.2.0]hept-6-ylidene]-3-aminooxypropionic acid], in data set [1] (Homo sapiens, Platelet), the concentration for half-maximal inhibition (IC50) is 1020 nM.

Turning to `O=C(O)CCON=C1CC2C1CC(C#CC(O)C1CCCCC1)C2O` (stereo not drawn) [Compound 18, N--[2-endo-hydroxy-3-exo-(3-hydroxy-3-cyclohexylprop-1-ynyl)bicyclo[3.2.0]hept-6-ylidene]-3-aminooxypropionic acid], the IC50 in data set [1] (Homo sapiens, Platelet) came out at 8.4 nM. This IC50 is about 120-fold lower than that of the compound before.

On to `O=C(O)CCON=C1CC2C1CC(/C=C/C(O)C1CCCCC1)C2O` (stereo not drawn) [Compound 19, N--[2-endo-hydroxy-3-exo-(3α-hydroxy-3-cyclohexylprop-1-trans-enyl)bicyclo[3.2.0]hept-6-ylidene]-3-aminooxypropionic acid], for which, in data set [1], the 50% inhibitory concentration (IC50) came out at 81 nM. This counts as double-digit nanomolar.

Take `O=C(O)CCON=C1CC2C1CC(CCC(O)C1CCCCC1)C2O` (stereo not drawn) [Compound 20, N--[2-endo-hydroxy-3-exo-(3-hydroxy-3-cyclohexylprop-1-yl)bicyclo[3.2.0]hept-6-ylidene]-3-aminooxypropionic acid]: in data set [1] (Homo sapiens, Platelet), the IC50 turned out to be 2350 nM.

`CCCCCCCC(O)C#CC1CC2C(=NOCCC(=O)O)CC2C1O` (stereo not drawn) [Compound 21, N--[2-endo-hydroxy-3-exo-(3-hydroxydec-1-ynyl)bicyclo[3.2.0]hept-6-ylidene]-3-aminooxypropionic acid] had an IC50 in data set [1] (Homo sapiens, Platelet) of 117 nM.

In turn, `CCCCCCCC(O)CCC1CC2C(=NOCCC(=O)O)CC2C1O` (stereo not drawn) [Compound 22, N--[2-endo-hydroxy-3-exo-(3-hydroxydec-1-yl)bicyclo[3.2.0]hept-6-ylidene]-3-aminooxypropionic acid] had an IC50 in data set [1] (Homo sapiens, Platelet) of 1300 nM.

`CCCCCC(O)C#CC1CC2C(=NOCCC(=O)O)CC2C1O` (stereo not drawn) [Compound 23, N--[2-endo-hydroxy-3-exo-(3-hydroxyoct-1-ynyl)bicyclo[3.2.0]hept-6-ylidene] -3-aminooxypropionic acid] had an IC50 in data set [1] of 175 nM. This counts as sub-micromolar.

Take `CCCCCC(O)C#CC1CC2C(=NOCCC(=O)O)CC2C1O` (stereo not drawn) [Compound 24, N--[2-endo-hydroxy-3-exo-(3αβS--hydroxyoct-1-ynyl)bicyclo[3.2.0]hept-6-ylidene]-3-aminooxypropionic acid]: the IC50 in data set [1] stood at 43 nM.

Regarding `CCCCCC(O)C#CC1CC2C(=NOCCCC(=O)O)CC2C1O` (stereo not drawn) [Compound 25, N--[2-endo-hydroxy-3-exo-(3αβS--hydroxyoct-1-ynyl)bicyclo[3.2.0]hept-6-ylidene]-4-aminooxybutyric acid], 420 nM corresponded to half-maximal inhibition in data set [1] (Homo sapiens, Platelet) (IC50).

`CCCCCC(O)C#CC1C(O)CC2C(=NOCCC(=O)O)CC21` (stereo not drawn) [Compound 26, N--[3-endo-hydroxy-2-exo-(3αβS--hydroxyoct-1-ynyl)bicyclo[3.2.0]hept-6-ylidene]-3-aminooxypropionic acid]: in data set [1] (Homo sapiens, Platelet), inhibition was half-maximal at 21000 nM (IC50).

On to `CCCCCC(O)C#CC1C(O)CC2C(=NOCCCC(=O)O)CC21` (stereo not drawn) [Compound 27, N--[3-endo-hydroxy-2-exo-(3αβS--hydroxyoct-1-ynyl)bicyclo[3.2.0]hept-6-ylidene]-4-aminooxybutyric acid], for which the half-inhibitory concentration (IC50) in data set [1] (Homo sapiens, Platelet) was 1100 nM. Against the preceding compound, the IC50 is about 19-fold lower.

For `CCCCCC(O)C#CC1CC2C(=NOCCC(=O)O)CC2C1O` (stereo not drawn) [Test Material], the LD50 (commonly the dose expected to kill half of the subjects tested) in data set [2] was above 120 mg/kg.

Source of the values: patent US4552898A, “[3.2.0]Bicycloheptanone oxime ethers with valuable therapeutic properties” (Syntex (U.S.A.) Inc., priority 1983, dated 1985).
